The test system of series [1] is c-Raf-Mek-Erk cascade. In words: c-Raf-Mek-Erk ELISA (cell-free reconstituted kinase cascade, Erk phosphorylation). It is filed as biochemical, human. The method, then:
The inhibitory effect on the following human serine/threonine and tyrosine kinases of the compounds of the invention was tested in conventional kinase assays: PKB/Akt1, c-Raf-Mek-Erk, B-Raf-Mek-Erk, Mek-Erk, MAPKs, PDGFRbeta, Flt-3, c-Kit, c-Abl, KDR, FGFR1 and IGF1R. Both the full-length kinases and truncated fragments—but at least the cytoplasmic kinase domains—were employed. The kinases were prepared as recombinant fusion proteins with GST (glutathion S-transferase) or HIS Tag in Sf9 cell culture. Depending on the substrate type, the various kinase reactions were carried out in sandwich ELISA formates or by means of a simple substrate adsorption assay on 96-well Flashplates (Perkin Elmer).
The testing on substances on the c-Raf-Mek-Erk cascade is described in detail below. Selected test results for the c-Raf-Mek-Erk assays are then listed.
Procedure: c-Raf-Mek-Erk ELISA
Potential inhibitors were firstly investigated at a concentration of 20 μg/ml in initial single-dose determinations on 96-well microtiter plates (MTPs). Substances with >70% inhibition were employed for dose-response studies.
Reconstitution of the c-Raf-Mek-Erk cascade was quantified with the aid of a cell-free ELISA.
A typical kinase assay was carried out in a final volume of 50 μl with in each case 20-150 ng of Raf, Mek, Erk protein, 1 mM ATP, 10 mM MgCl2, 150 mM NaCl, 25 mM beta-glycerophosphate, 25 mM Hepes pH 7.5. Before the kinase reaction, the test substances were each preincubated singly with each of the three kinase proteins at room temperature for 30 minutes. For the kinase reaction, the kinases preincubated with test substance were combined and incubated at 26° C. for 30 minutes. The reaction was stopped by a final concentration of 2% SDS and 10 minutes at 50° C. in a heating block.
For the immunodetection, the reaction mixtures were transferred to 96-well MTPs coated with anti-Erk Ab(K-23, Santa Cruz Biotechnology, incubated at room temperature for 60 minutes and washed 3× with TBST. Anti-phospho-Erk Ab (#9106, New England Biolabs) 1:500 in 50 μl of TBST/1% BSA, was added and incubated at 4° C. overnight. After the MTPs had been washed 3× with TBST, secondary anti-mouse IgG^POD conjugate (#NA931, Pharmacia) 1:2500 was added, incubated at room temperature for 1 h and again washed 3× with TBST. For colorimetric detection of the kinase reaction, 50 μl of OPD (o-phenyldiamine dihydrochloride) chromogen buffer were pipetted into each of the wells and incubated at 37° C. for 30 minutes. The colour reaction was then determined in an ELISA reader at 492 nm.
The experimental determination of dose-response plots took place using the same experimental design with 10 semilogarithmically graded concentrations from 31.6 pM-100 μM. The IC50 values were calculated in GraphPadPrism.

[2] abbreviates: inhibition of Erk phosphorylation, 1 mM ATP, 10 concentrations 31.6 pM-100 μM, read-out: IC50.
The mark [3] stands for this setting: read-out: IC50 values, inhibition of Erk phosphorylation.

Here are results for 19 compounds from US8193186B2, “Pyridopyrazines and the use thereof as kinase inhibitors” (AEterna Zentaris GmbH, priority 2003, dated 2012).

Structures are written as SMILES. Where a name gives a salt, the structure may show the parent alone. Read-outs that look alike come from different tables or passages of the source. Where only a bound is given, the exact number is not on record here.

Take `C=C(C)CNC(=S)Nc1ccc2ncc(-c3ccccc3)nc2n1` [Example 5, 1-(2-Methylallyl)-3-(3-phenylpyrido[2,3-b]pyrazin-6-yl)thiourea]: the IC50 in series [1] (setting [2]) is approximately 1 µM.
In the case of `COc1ccc(-c2cnc3ccc(NC(=S)Nc4ccc([N+](=O)[O-])cc4)nc3n2)cc1` [Example 9, 1-[3-(4-Methoxyphenyl)pyrido[2,3-b]pyrazin-6-yl]-3-(4-nitrophenyl)thiourea], the IC50 in series [1] (setting [2]) is more than 100 µM.
Still for that read-out and setting: the same measure for `O=C(Nc1ccc(Cl)c(C(F)(F)F)c1)Nc1ccc2ncc(-c3ccccc3)nc2n1` [Example 34, 1-(4-Chloro-3-trifluoromethylphenyl)-3-(3-phenylpyrido[2,3-b]pyrazin-6-yl)urea]: more than 100 µM; for `O=C(NCCN1CCOCC1)Nc1ccc2ncc(-c3ccccc3)nc2n1` [Example 35, 1-(2-Morpholin-4-ylethyl)-3-(3-phenylpyrido[2,3-b]pyrazin-6-yl)urea]: 15 µM; for `Fc1ccc(NC(=S)Nc2ccc3ncc(-c4ccccc4)nc3n2)cc1` [Example 14, 1-(4-Fluorophenyl)-3-(3-phenylpyrido[2,3-b]pyrazin-6-yl)thiourea]: approximately 50 µM.
As for `C=CCNC(=S)Nc1ccc2ncc(-c3ccc4ccccc4c3)nc2n1` [Example 2, 1-Allyl-3-(3-naphthalen-2-ylpyrido[2,3-b]pyrazin-6-yl)thiourea], the IC50 in series [1] (setting [2]) turned out to be 16 µM.
In the case of `O=[N+]([O-])c1ccc(NC(=S)Nc2ccc3ncc(-c4ccc5ccccc5c4)nc3n2)cc1` [Example 8, 1-(3-Naphthalen-2-ylpyrido[2,3-b]pyrazin-6-yl)-3-(4-nitrophenyl)thiourea], the IC50 in series [1] (setting [2]) is more than 100 µM.
On the same count and under the same terms, the same measure for `Cc1ccc(NC(=O)Nc2ccc3ncc(-c4ccccc4)nc3n2)cc1` [Example 33, 1-(3-Phenylpyrido[2,3-b]pyrazin-6-yl)-3-p-tolylurea]: more than 100 µM.
The same measure, in the same setting: the same measure for `S=C(NCc1ccccc1)Nc1ccc2ncc(-c3ccccc3)nc2n1` [Example 13, 1-Benzyl-3-(3-phenylpyrido[2,3-b]pyrazin-6-yl)thiourea]: more than 100 µM; for `C=C(C)CNC(=S)Nc1ccc2ncc(-c3ccc4ccccc4c3)nc2n1` [Example 6, 1-(2-Methylallyl)-3-(3-naphthalen-2-ylpyrido[2,3-b]pyrazin-6-yl)thiourea]: approximately 100 µM.
The same measure, in the same setting: under `C=CCNC(=S)Nc1ccc2ncc(-c3ccc(OC)cc3)nc2n1` [Example 3, 1-Allyl-3-[3-(4-methoxyphenyl)pyrido[2,3-b]pyrazin-6-yl]thiourea] stands approximately 1 µM.
As to `C=CCNC(=S)Nc1ccc2ncc(-c3ccccc3)nc2n1` [Example 1, 1-allyl-3-(3-phenylpyrido[2,3-b]pyrazin-6-yl)thiourea], in series [1] (setting [2]), the IC50 is approximately 1 µM.
Regarding `C=CCNC(=S)Nc1ccc2ncc(-c3ccc(O)cc3)nc2n1` [Example 4, 1-Allyl-3-[3-(4-hydroxyphenyl)pyrido[2,3-b]pyrazin-6-yl]thiourea hydrochloride], the IC50 in series [1] (setting [3]) was found to be 0.4 µM.
As for `CC=CNC(=S)Nc1ccc2nc(-c3ccc(O)cc3)c(-c3ccc(O)cc3)nc2n1` [Example 28, 1-[2,3-Bis(4-hydroxyphenyl)pyrido[2,3-b]pyrazin-6-yl]-3-(propenyl)thiourea], the melting point was 240 °C (dec.).
Take `C=C(C)CNC(=S)Nc1ccc2ncc(-c3ccc(OC)cc3)nc2n1` [Example 7, 1-[3-(4-Methoxyphenyl)pyrido[2,3-b]pyrazin-6-yl]-3-(2-methylallyl)thiourea]: the IC50 in series [1] (setting [2]) was determined as 43 µM.
For `S=C(Nc1ccc2ncc(-c3ccccc3)nc2n1)NC1CC1` [Example 11, 1-Cyclopropyl-3-(3-phenylpyrido[2,3-b]pyrazin-6-yl)thiourea], the IC50 in series [1] (setting [2]) was 0.9 µM.
On the same count and under the same terms, the same measure for `CC(C)(C)NC(=S)Nc1ccc2ncc(-c3ccccc3)nc2n1` [Example 10, 1-tert-Butyl-3-(3-phenylpyrido[2,3-b]pyrazin-6-yl)thiourea]: more than 100 µM.
Regarding `C#CCNC(=S)Nc1ccc2ncc(-c3ccc(O)cc3)nc2n1` [Example 24, 1-[3-(4-Hydroxyphenyl)pyrido[2,3-b]pyrazin-6-yl]-3-prop-2-ynylthiourea], the melting point was 350 °C (dec.).
Turning to `CNC(=S)Nc1ccc2ncc(-c3ccccc3)nc2n1` [Example 12, 1-Methyl-3-(3-phenylpyrido[2,3-b]pyrazin-6-yl)thiourea], in series [1] (setting [3]), the IC50 amounted to 0.4 µM.
